Numbers after ± are expanded uncertainties.
Assay: xn = mol fraction of the nth substance listed
Conditions: 101 kPa, Liquid; for viscosity: Capillary tube (Ostwald / Ubbelohde) method; for mass density: Pycnometric method; for speed of sound: Resonance method

C[N+](=O)[O-] [nitromethane] + COCCO
Conditions | mass density [kg/m3] | speed of sound [m/s] | viscosity [mPa·s]
293.15 K, x1 = 0.05 | 970.66 ± 0.49 | 1354.7 ± 2.3 | –
293.15 K, x1 = 0.0501 | – | – | 1.618 ± 0.014
293.15 K, x1 = 0.0998 | 976.62 ± 0.5 | 1351.1 ± 2.3 | –
293.15 K, x1 = 0.1024 | – | – | 1.527 ± 0.013
293.15 K, x1 = 0.2 | 989.24 ± 0.52 | 1345 ± 2.3 | –
293.15 K, x1 = 0.2162 | – | – | 1.341 ± 0.012
293.15 K, x1 = 0.2991 | – | 1340 ± 2.3 | –
293.15 K, x1 = 0.3 | 1002.64 ± 0.54 | – | –
293.15 K, x1 = 0.3003 | – | – | 1.216 ± 0.011
293.15 K, x1 = 0.4 | 1017.06 ± 0.55 | 1335.5 ± 2.3 | –
293.15 K, x1 = 0.4076 | – | – | 1.072 ± 0.01
293.15 K, x1 = 0.451 | – | – | 1.02 ± 0.009
293.15 K, x1 = 0.4997 | – | – | 0.964 ± 0.009
293.15 K, x1 = 0.4998 | – | 1331.9 ± 2.3 | –
293.15 K, x1 = 0.5 | 1032.73 ± 0.57 | – | –
293.15 K, x1 = 0.55 | – | – | 0.91 ± 0.008
293.15 K, x1 = 0.6 | 1049.94 ± 0.59 | 1329.2 ± 2.3 | –
293.15 K, x1 = 0.6026 | – | – | 0.859 ± 0.008
293.15 K, x1 = 0.6998 | – | – | 0.775 ± 0.008
293.15 K, x1 = 0.7 | 1068.86 ± 0.62 | 1327.7 ± 2.3 | –
293.15 K, x1 = 0.7991 | – | – | 0.71 ± 0.007
293.15 K, x1 = 0.8 | – | 1327.5 ± 2.3 | –
293.15 K, x1 = 0.8002 | 1089.69 ± 0.64 | – | –
293.15 K, x1 = 0.8999 | 1112.46 ± 0.65 | 1330.3 ± 2.4 | –
293.15 K, x1 = 0.9001 | – | – | 0.663 ± 0.007
293.15 K, x1 = 0.941 | – | – | 0.653 ± 0.007
293.15 K, x1 = 0.9503 | 1124.81 ± 0.66 | 1333.7 ± 2.4 | –
293.15 K, x1 = 1 | 1137.63 ± 0.66 | 1340.2 ± 2.4 | 0.648 ± 0.007
298.15 K, x1 = 0.05 | 965.94 ± 0.5 | 1338.1 ± 2.3 | –
298.15 K, x1 = 0.0506 | – | – | 1.466 ± 0.013
298.15 K, x1 = 0.0998 | 971.79 ± 0.5 | 1334.8 ± 2.3 | –
298.15 K, x1 = 0.1037 | – | – | 1.387 ± 0.012
298.15 K, x1 = 0.2 | 984.22 ± 0.52 | 1329.2 ± 2.3 | –
298.15 K, x1 = 0.2002 | – | – | 1.249 ± 0.011
298.15 K, x1 = 0.2991 | – | 1324.1 ± 2.3 | –
298.15 K, x1 = 0.3 | 997.42 ± 0.53 | – | –
298.15 K, x1 = 0.3006 | – | – | 1.118 ± 0.01
298.15 K, x1 = 0.4 | 1011.62 ± 0.55 | 1319.6 ± 2.3 | –
298.15 K, x1 = 0.4052 | – | – | 0.994 ± 0.009
298.15 K, x1 = 0.4509 | – | – | 0.944 ± 0.009
298.15 K, x1 = 0.4998 | – | 1315.6 ± 2.3 | –
298.15 K, x1 = 0.5 | 1027.07 ± 0.56 | – | –
298.15 K, x1 = 0.5016 | – | – | 0.892 ± 0.008
298.15 K, x1 = 0.5497 | – | – | 0.846 ± 0.008
298.15 K, x1 = 0.5991 | – | – | 0.8 ± 0.008
298.15 K, x1 = 0.6 | 1044.03 ± 0.58 | 1312.6 ± 2.3 | –
298.15 K, x1 = 0.694 | – | – | 0.725 ± 0.007
298.15 K, x1 = 0.7 | 1062.69 ± 0.6 | 1310.7 ± 2.3 | –
298.15 K, x1 = 0.7953 | – | – | 0.666 ± 0.007
298.15 K, x1 = 0.8 | – | 1310.6 ± 2.3 | –
298.15 K, x1 = 0.8002 | 1083.23 ± 0.62 | – | –
298.15 K, x1 = 0.8997 | – | – | 0.629 ± 0.007
298.15 K, x1 = 0.8999 | 1105.69 ± 0.65 | 1312.9 ± 2.4 | –
298.15 K, x1 = 0.9454 | – | – | 0.621 ± 0.006
298.15 K, x1 = 0.9503 | 1117.91 ± 0.66 | 1315.8 ± 2.4 | –
298.15 K, x1 = 1 | 1130.62 ± 0.67 | 1320.4 ± 2.4 | 0.619 ± 0.006
303.15 K, x1 = 0.05 | 961.25 ± 0.5 | 1321.7 ± 2.3 | –
303.15 K, x1 = 0.0585 | – | – | 1.328 ± 0.012
303.15 K, x1 = 0.0998 | 966.98 ± 0.51 | 1318.5 ± 2.3 | –
303.15 K, x1 = 0.1015 | – | – | 1.271 ± 0.011
303.15 K, x1 = 0.1989 | – | – | 1.149 ± 0.01
303.15 K, x1 = 0.2 | 979.15 ± 0.52 | 1312.9 ± 2.3 | –
303.15 K, x1 = 0.2991 | – | 1307.4 ± 2.3 | –
303.15 K, x1 = 0.3 | 992.16 ± 0.54 | – | –
303.15 K, x1 = 0.3091 | – | – | 1.02 ± 0.01
303.15 K, x1 = 0.3978 | – | – | 0.925 ± 0.009
303.15 K, x1 = 0.4 | 1006.16 ± 0.55 | 1302.5 ± 2.3 | –
303.15 K, x1 = 0.449 | – | – | 0.875 ± 0.008
303.15 K, x1 = 0.4998 | – | 1298.1 ± 2.3 | 0.828 ± 0.008
303.15 K, x1 = 0.5 | 1021.4 ± 0.57 | – | –
303.15 K, x1 = 0.5549 | – | – | 0.782 ± 0.008
303.15 K, x1 = 0.59 | – | – | 0.756 ± 0.007
303.15 K, x1 = 0.6 | 1038.1 ± 0.59 | 1294.5 ± 2.3 | –
303.15 K, x1 = 0.6977 | – | – | 0.684 ± 0.007
303.15 K, x1 = 0.7 | 1056.45 ± 0.61 | 1292.2 ± 2.3 | –
303.15 K, x1 = 0.7979 | – | – | 0.632 ± 0.007
303.15 K, x1 = 0.8 | – | 1291.7 ± 2.3 | –
303.15 K, x1 = 0.8002 | 1076.63 ± 0.63 | – | –
303.15 K, x1 = 0.8999 | 1098.72 ± 0.65 | 1293.4 ± 2.3 | –
303.15 K, x1 = 0.9037 | – | – | 0.594 ± 0.006
303.15 K, x1 = 0.9503 | 1110.81 ± 0.66 | 1295.1 ± 2.4 | –
303.15 K, x1 = 0.9508 | – | – | 0.585 ± 0.006
303.15 K, x1 = 1 | 1123.6 ± 0.67 | 1298.1 ± 2.4 | 0.584 ± 0.006
308.15 K, x1 = 0.05 | 956.53 ± 0.52 | 1310.2 ± 2.3 | –
308.15 K, x1 = 0.0671 | – | – | 1.175 ± 0.011
308.15 K, x1 = 0.0998 | 962.12 ± 0.52 | 1307.4 ± 2.3 | –
308.15 K, x1 = 0.1029 | – | – | 1.134 ± 0.011
308.15 K, x1 = 0.1995 | – | – | 1.025 ± 0.01
308.15 K, x1 = 0.2 | 974.11 ± 0.54 | 1301.4 ± 2.3 | –
308.15 K, x1 = 0.2991 | – | 1295.7 ± 2.3 | –
308.15 K, x1 = 0.3 | 986.95 ± 0.55 | – | –
308.15 K, x1 = 0.3053 | – | – | 0.917 ± 0.009
308.15 K, x1 = 0.4 | 1000.76 ± 0.56 | 1290.4 ± 2.3 | –
308.15 K, x1 = 0.4012 | – | – | 0.833 ± 0.008
308.15 K, x1 = 0.4528 | – | – | 0.792 ± 0.008
308.15 K, x1 = 0.4998 | – | 1285.6 ± 2.3 | –
308.15 K, x1 = 0.5 | 1015.8 ± 0.58 | – | –
308.15 K, x1 = 0.5078 | – | – | 0.75 ± 0.008
308.15 K, x1 = 0.5514 | – | – | 0.719 ± 0.007
308.15 K, x1 = 0.5981 | – | – | 0.689 ± 0.007
308.15 K, x1 = 0.6 | 1032.3 ± 0.59 | 1281.5 ± 2.3 | –
308.15 K, x1 = 0.6981 | – | – | 0.633 ± 0.007
308.15 K, x1 = 0.7 | 1050.38 ± 0.61 | 1278.6 ± 2.3 | –
308.15 K, x1 = 0.7954 | – | – | 0.594 ± 0.006
308.15 K, x1 = 0.8 | – | 1277.7 ± 2.3 | –
308.15 K, x1 = 0.8002 | 1070.27 ± 0.63 | – | –
308.15 K, x1 = 0.8985 | – | – | 0.572 ± 0.006
308.15 K, x1 = 0.8999 | 1092.11 ± 0.66 | 1278.6 ± 2.3 | –
308.15 K, x1 = 0.9383 | – | – | 0.569 ± 0.006
308.15 K, x1 = 0.9503 | 1104.13 ± 0.67 | 1279.6 ± 2.3 | –
308.15 K, x1 = 1 | 1116.86 ± 0.67 | 1281.2 ± 2.3 | 0.563 ± 0.006
313.15 K, x1 = 0.0498 | – | – | 1.055 ± 0.01
313.15 K, x1 = 0.05 | 951.39 ± 0.53 | 1293.9 ± 2.3 | –
313.15 K, x1 = 0.0998 | 956.87 ± 0.53 | 1291.1 ± 2.3 | –
313.15 K, x1 = 0.1101 | – | – | 0.999 ± 0.01
313.15 K, x1 = 0.2 | 968.71 ± 0.54 | 1285.4 ± 2.3 | –
313.15 K, x1 = 0.2081 | – | – | 0.911 ± 0.009
313.15 K, x1 = 0.2991 | – | 1279.7 ± 2.3 | –
313.15 K, x1 = 0.3 | 981.39 ± 0.55 | – | –
313.15 K, x1 = 0.3023 | – | – | 0.835 ± 0.008
313.15 K, x1 = 0.4 | 995.04 ± 0.56 | 1274.2 ± 2.3 | –
313.15 K, x1 = 0.4004 | – | – | 0.762 ± 0.008
313.15 K, x1 = 0.4571 | – | – | 0.722 ± 0.007
313.15 K, x1 = 0.4998 | – | 1269.3 ± 2.3 | –
313.15 K, x1 = 0.5 | 1009.9 ± 0.57 | – | –
313.15 K, x1 = 0.5015 | – | – | 0.693 ± 0.007
313.15 K, x1 = 0.5566 | – | – | 0.659 ± 0.007
313.15 K, x1 = 0.599 | – | – | 0.636 ± 0.007
313.15 K, x1 = 0.6 | 1026.19 ± 0.59 | 1265.1 ± 2.3 | –
313.15 K, x1 = 0.6995 | – | – | 0.589 ± 0.006
313.15 K, x1 = 0.7 | 1044.07 ± 0.6 | 1262.1 ± 2.3 | –
313.15 K, x1 = 0.8 | – | 1260.9 ± 2.3 | 0.562 ± 0.006
313.15 K, x1 = 0.8002 | 1063.69 ± 0.62 | – | –
313.15 K, x1 = 0.8851 | – | – | 0.555 ± 0.006
313.15 K, x1 = 0.8999 | 1085.24 ± 0.65 | 1261.5 ± 2.3 | –
313.15 K, x1 = 0.9387 | – | – | 0.553 ± 0.006
313.15 K, x1 = 0.9503 | 1097.15 ± 0.67 | 1262.2 ± 2.3 | –
313.15 K, x1 = 1 | 1109.87 ± 0.68 | 1262.8 ± 2.4 | 0.545 ± 0.006

Source: the NIST ThermoML archive (doi:10.1016/j.jct.2010.10.016)
